Consider 22 compounds from PubChem BioAssay (NCI).

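1) Cells in 96-well plates. 2) Compound, 48 h, 5 concentrations. 3) Linear interpolation between surrounding doses. 4) Unreached endpoint = highest concentration. GI50 marks 50% less growth. Definition used: TGI = concentration required for complete inhibition of growth.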

Common to all, as to test: DTP human tumour cell line panel, 48 h
Assay [1] concerns COLO 205 colon.
For assay [2], the system named is HCT-15 colon.
The subject of assay [3] is K-562 leukemia.
The subject of assay [4] is SR leukemia.
The test system of assay [5] is UACC-62 melanoma.
For assay [6], the system named is OVCAR-4 ovarian.
In assay [7] the test system is EKVX NSCLC.
The subject of assay [8] is CCRF-CEM leukemia.
Assay [9] deals with TK-10 renal.
The subject of assay [10] is HCC-2998 colon.

In the case of `COc1ccc2[nH]c3c4[nH]c5ccc(OC)cc5c4c4c(c3c2c1)C(=O)NC4=O`, the GI50 (as a rule, the concentration at which growth is held to half of that of the control) in assay [1] is greater than 25 µM; in assay [2], greater than 14.3 µM; in [3], greater than 6.63 µM; in [4], 1.29 µM; in assay [5], greater than 25 µM; in assay [6], greater than 25 µM. Also, the GI50 in [7] was greater than 25 µM; in assay [8], 0.757 µM; in assay [9], greater than 7.63 µM; in assay [10], greater than 25 µM. Further, the TGI in assay [1], in [2], in assay [3], in assay [4], in [5] and in [6] was greater than 25 µM throughout. For the same compound, the concentration for total growth inhibition (TGI) in assay [7], in [8], in [9] and in assay [10] was greater than 25 µM in each case.

In the case of `Cc1[nH]c(=O)nc2[nH][nH]c(=O)c12`, the TGI in assay [1], in assay [2], in [3], in assay [4], in [5] and in assay [6] was greater than 100 µM each time. Also, the TGI in [7], in assay [8] and in assay [9] was greater than 100 µM in each case.

In the case of `Nc1nc(Nc2cccnc2)sc1C(=O)c1ccccc1F`, the GI50 in assay [1] is 1.78 µM; in assay [2], 2.82 µM; in assay [3], 6.69 µM; in assay [4], 0.709 µM; in [5] it was 1.78 µM; in assay [6], 8.74 µM. The GI50 is 2.6 µM in [7], 2.19 µM in assay [8], 4.09 µM in assay [9] and 0.309 µM in assay [10]. In addition, the total growth inhibition concentration (TGI) (in general, the concentration giving total growth inhibition) in assay [1] is 4.68 µM; in assay [2], greater than 87.8 µM; in assay [3], greater than 65.4 µM; in assay [5], 5.34 µM; in assay [6], 76.6 µM; in assay [7] it was 13.9 µM. The figures for the TGI in assay [8], in [9] and in assay [10] were greater than 21.9 µM, 49.9 µM and 0.972 µM, respectively.

`CCc1nc(N)nc(N)c1-c1ccc(NC)c([N+](=O)[O-])c1`: the TGI was 34.4 µM in [1]; greater than 100 µM in assay [2]; greater than 25.8 µM in assay [3]; greater than 29.4 µM in assay [4]; greater than 100 µM in assay [5]; greater than 100 µM in assay [6]. Also, the TGI in assay [7] was greater than 100 µM; in assay [8] it was greater than 41.8 µM; in assay [9] it was greater than 100 µM; in assay [10] it was 65.7 µM.

Turning to `COc1c2c(cc3c1OCO3)[C@]13C=C[C@H](OC)C[C@H]1N(C2)CC3O` (some centres not stated), the total growth inhibition concentration (TGI) in assay [1], in assay [2], in [4], in [5], in assay [6] and in [7] was greater than 100 µM in each case. In addition, the TGI in assay [8], in assay [9] and in [10] was greater than 100 µM throughout.

With `Cc1cc2ncnn2cc1Nc1ncc2c(n1)n(C1CCOCC1)c(=O)n2C`, the GI50 in assay [1] is 4.93 µM; in [2] it was 8.23 µM; in assay [3], 16 µM; in assay [4] it was 3.42 µM; in assay [5] it was 3.5 µM; in assay [6], 3.94 µM. The GI50 is 10.8 µM in [7], 4.04 µM in [8] and 6.56 µM in assay [10]. Also, the TGI in assay [1] was greater than 100 µM; in assay [2], greater than 100 µM; in [3], greater than 100 µM; in assay [4], 52.9 µM; in assay [5] it was 29.3 µM; in [6], 42.9 µM. In addition, the TGI in [7], in assay [8] and in assay [10] was greater than 100 µM each time.

With `CCCC1=C(CC)C(C(=O)Nc2c(C)cccc2C)=NC(S)N1` (configuration not stated), the concentration for total growth inhibition (TGI) in assay [1], in assay [2], in assay [3], in assay [4], in assay [5] and in assay [6] was greater than 100 µM in each case. Moreover, the TGI in [7], in assay [8] and in assay [9] was greater than 100 µM throughout.

Consider `CCOC(=O)C1CCN(S(=O)(=O)/N=C2/NC(=O)NC2=C(Cl)Cl)CC1`, for which the GI50 is 2.08 µM in assay [1]; 1.82 µM in assay [2]; 1.82 µM in assay [3]; 0.731 µM in assay [4]; 1.71 µM in assay [5]; 1.99 µM in assay [7]. Moreover, the GI50 in [8] is 1.23 µM; in assay [9] it was 1.25 µM; in [10], 2.05 µM. For the same compound, the concentration for total growth inhibition (TGI) in [1] was 3.83 µM; in assay [2] it was 3.56 µM; in [3], 5.99 µM; in assay [4], 4.96 µM; in assay [5], 3.27 µM; in assay [7], 4.79 µM. For the same compound, the figures for the total growth inhibition concentration (TGI) in [8], in assay [9] and in assay [10] were 3.16 µM, greater than 100 µM and 3.67 µM, respectively.

Take `CCCN(CCC)C(=O)c1c([N+](=O)[O-])cc(C(F)(F)F)cc1[N+](=O)[O-]`: the TGI in assay [1] is 39.1 µM; in [2], greater than 100 µM; in assay [3], greater than 100 µM; in assay [4] it was greater than 100 µM; in assay [5], 50.1 µM; in assay [6] it was 32.9 µM. Further, the TGI in assay [7], in assay [8] and in assay [9] was greater than 100 µM each time.

In the case of `COC(=O)C12CC3CC(CC(C(=O)O)(C3)C1)C2`, the TGI in assay [2], in assay [3], in assay [4], in [5], in assay [6] and in assay [7] was greater than 100 µM throughout. The TGI in assay [8], in assay [9] and in [10] was greater than 100 µM throughout.

In the case of `O=C1c2ccccc2C(=O)C1(O)c1c[nH]c2ccccc12`, the total growth inhibition concentration (TGI) in assay [1], in [2], in assay [3], in assay [4], in assay [5] and in [6] was greater than 100 µM each time. In addition, the concentration for total growth inhibition (TGI) in [7], in [8] and in assay [9] was greater than 100 µM each time.

In the case of `[N-]=[N+]=C1C(=O)NN=C1c1ccccc1`, the TGI in assay [1], in assay [2], in assay [3], in assay [4], in [6] and in assay [7] was greater than 100 µM throughout. In addition, the TGI in assay [8], in assay [9] and in assay [10] was greater than 100 µM throughout.

`CNC(=S)/N=C(\N)N(C)C`: the TGI is greater than 100 µM in assay [1]; greater than 100 µM in [2]; greater than 100 µM in [3]; greater than 100 µM in [4]; greater than 100 µM in assay [5]; greater than 10 µM in assay [6]. The TGI in assay [7], in assay [9] and in assay [10] was greater than 100 µM in each case.

Regarding `Nc1ccccc1/C(O)=C1/CCOC1=O`, the TGI in assay [1], in assay [3], in assay [4], in [5], in assay [6] and in [7] was greater than 100 µM throughout. The concentration for total growth inhibition (TGI) in assay [8] and in [9] was greater than 100 µM each time.

As for `c1ccc(Sc2ccc(Cc3nc4cc5ccccc5cc4[nH]3)cc2)cc1`, the GI50 was 10.1 µM in assay [1]; 0.205 µM in [2]; 0.279 µM in [3]; 26 µM in assay [4]; 4.17 µM in assay [5]; 57.5 µM in assay [6]. Also, the values for the GI50 in assay [7], in assay [8] and in [9] were 12.5 µM, 1.42 µM and 0.456 µM, respectively. The TGI in assay [1] was 30.9 µM; in [2] it was 53.9 µM; in [3], greater than 47.8 µM; in [4], greater than 100 µM; in assay [5], 27.2 µM; in assay [6] it was greater than 100 µM. For the same compound, the TGI in assay [7] is greater than 100 µM; in assay [8], greater than 59 µM; in assay [9], 18 µM.

Regarding `C=C(C)[C@@H]1CC[C@]2(CO)CC[C@]3(C)[C@H](CC[C@@H]4[C@@]5(C)C=C(C#N)C(=O)C(C)(C)[C@@H]5CC[C@]43C)[C@@H]12`, the GI50 was 1.38 µM in [1]; 2.2 µM in assay [3]; 1.53 µM in [4]; 0.72 µM in assay [5]; 0.769 µM in [6]; 1.63 µM in assay [7]. In addition, the GI50 was 2.11 µM in assay [8], 2.09 µM in assay [9] and 2.03 µM in assay [10]. Besides, the TGI was 2.72 µM in assay [1]; greater than 100 µM in [3]; 6.01 µM in [4]; 2.44 µM in [5]; 5.11 µM in assay [6]; 4.61 µM in assay [7]. The TGI in assay [8] came to 8.7 µM; in assay [9], 6.06 µM; in assay [10] it was 4.22 µM.

In the case of `COC(=O)Nc1nc2ccc(C3(c4ccc(F)cc4)OCCO3)cc2[nH]1`, the 50% growth inhibitory concentration (GI50) was 0.297 µM in [1]; 0.178 µM in assay [2]; 0.112 µM in assay [3]; 0.122 µM in assay [4]; 0.619 µM in assay [5]; 7.16 µM in assay [6]. Moreover, the GI50 in assay [8] was 0.337 µM; in [9] it was 15.7 µM; in [10] it was 1.99 µM. Besides, the TGI in assay [1] is 2.88 µM; in assay [2] it was greater than 100 µM; in assay [3], greater than 100 µM; in [4], greater than 100 µM; in assay [5] it was greater than 100 µM; in assay [6], greater than 100 µM. Moreover, the TGI in assay [8], in assay [9] and in assay [10] was greater than 100 µM throughout.

For `CCCCNC1CCCCC[C@H]1O` (some centres not stated), the total growth inhibition concentration (TGI) in [1], in [3], in assay [4], in [5], in assay [6] and in assay [7] was greater than 100 µM throughout. In addition, the TGI in assay [8], in assay [9] and in assay [10] was greater than 100 µM each time.

`COC(=O)C(Cc1nc2ccccc2[nH]c1=O)C(NO)C(=O)Nc1c(Cl)cc([N+](=O)[O-])cc1Cl` (configuration not stated): the TGI was greater than 100 µM in [1]; greater than 100 µM in assay [2]; greater than 100 µM in assay [3]; greater than 100 µM in assay [4]; 34.5 µM in assay [5]; greater than 100 µM in [6]. Further, the TGI in assay [7] was greater than 100 µM; in assay [8] it was 65.3 µM; in assay [10], greater than 100 µM.

With `O=S(=O)(c1ccc(NC(=S)NC23CC4CC(CC(C4)C2)C3)cc1)N1CCCCC1`, the GI50 in assay [1] was 1.82 µM; in assay [2] it was 3.22 µM; in assay [3], 3.6 µM; in assay [4] it was 2.69 µM; in [5] it was 3.22 µM; in assay [6], 4.01 µM. Moreover, the GI50 in [8] is 3.13 µM; in assay [9], 3.27 µM; in assay [10], 3.29 µM. Moreover, the TGI in assay [1] was 3.22 µM; in [2], greater than 100 µM; in [3], greater than 100 µM; in assay [4], greater than 100 µM; in assay [5], greater than 100 µM; in assay [6] it was greater than 100 µM. The TGI in assay [8] is greater than 100 µM; in [9], 64.1 µM; in assay [10], 19.9 µM.

Turning to `OCC1OC(n2cnc3c2NC=NC[C@H]3O)C(Cl)C1O` (some centres not stated), the TGI in assay [1], in [2], in assay [4], in [5], in assay [6] and in [7] was greater than 100 µM each time. The concentration for total growth inhibition (TGI) in assay [8], in assay [9] and in [10] was greater than 100 µM throughout.

Take `COc1c(C(=O)/C=C/c2ccccc2)c(O)cc2occc12`: the GI50 in assay [1] was 15.7 µM; in assay [2] it was 5.25 µM; in [3], 4.42 µM; in assay [4], 3.27 µM; in assay [5], 4.15 µM; in [6] it was 5.4 µM. Also, the results for the GI50 in [7], in assay [9] and in assay [10] were 12.5 µM, 11.2 µM and 3.76 µM, respectively. In addition, the TGI in [1] was 29.9 µM; in assay [2], 22.7 µM; in assay [3], greater than 100 µM; in assay [4] it was 22.2 µM; in [5] it was 15.1 µM; in [6] it was 26.6 µM. Moreover, the results for the TGI in assay [7], in assay [9] and in assay [10] were 25.6 µM, 24.8 µM and 14.3 µM, respectively.
